The source of these data is patent US11420956B2, “Ureas having Androgen Receptor degradation activity and uses thereof” (ACCUTAR BIOTECHNOLOGY INC., priority 2019, dated 2022).

Structures are written as SMILES. Where only a bound is given, the exact number is not on record here.

As a reminder, the DC50 is the midpoint of the concentration-degradation curve. Low readings indicate degradation at low concentration, high ones degradation only at high concentration.

This assay has as its target T1, androgen receptor (AR) (Homo sapiens, UniProt P10275, T878A).
T1 construct: endogenous in cells; host or cells: LNCAP
T1 sequence (P10275 1-920 T878A): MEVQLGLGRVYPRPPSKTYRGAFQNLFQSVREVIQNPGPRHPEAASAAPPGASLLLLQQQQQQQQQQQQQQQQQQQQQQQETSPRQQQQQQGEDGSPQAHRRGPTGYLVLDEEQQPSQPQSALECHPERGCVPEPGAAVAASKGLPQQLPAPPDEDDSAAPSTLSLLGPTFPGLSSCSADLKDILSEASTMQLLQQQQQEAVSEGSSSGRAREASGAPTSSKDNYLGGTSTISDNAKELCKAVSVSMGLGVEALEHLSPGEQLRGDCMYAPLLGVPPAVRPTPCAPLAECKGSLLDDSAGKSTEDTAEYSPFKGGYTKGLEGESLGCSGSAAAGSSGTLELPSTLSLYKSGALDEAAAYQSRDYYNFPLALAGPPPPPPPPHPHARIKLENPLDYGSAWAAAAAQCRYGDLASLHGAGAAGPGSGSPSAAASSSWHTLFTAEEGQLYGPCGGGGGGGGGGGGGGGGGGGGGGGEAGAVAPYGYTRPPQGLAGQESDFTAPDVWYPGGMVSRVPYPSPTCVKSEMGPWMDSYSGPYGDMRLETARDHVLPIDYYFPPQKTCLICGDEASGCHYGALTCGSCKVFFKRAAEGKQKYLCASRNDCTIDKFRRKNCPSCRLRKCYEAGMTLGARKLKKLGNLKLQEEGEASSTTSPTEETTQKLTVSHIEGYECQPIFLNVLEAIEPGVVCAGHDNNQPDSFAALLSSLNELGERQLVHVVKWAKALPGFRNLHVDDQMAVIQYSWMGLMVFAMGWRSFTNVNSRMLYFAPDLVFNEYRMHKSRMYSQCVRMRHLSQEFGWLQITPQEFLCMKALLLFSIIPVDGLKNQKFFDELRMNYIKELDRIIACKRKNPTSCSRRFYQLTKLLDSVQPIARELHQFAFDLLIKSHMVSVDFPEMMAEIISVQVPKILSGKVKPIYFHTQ
Nature of the assay: AR degradation in LNCAP cells (Western blot). It counts as cell-based. Conditions: 24 hours after administration. On the procedure: LNCAP, VCAP and 22Rv1 cells were plated in 24-well plates at 1.5×10E5 cells/well in the RPMI growth medium containing 10% FBS and 1% Penicillin Streptomycin, and then incubated at 37° C. overnight. The following day, the test compound was administered to the cells by using 1000× compound stock solution prepared in DMSO at various concentrations. After administration of the compound, the cells were then incubated at 37° C. for 24 hours. Upon completion, the cells were washed with PBS and protein was collected in Laemmli sample buffer (1×; VWR International). Proteins in cell lysate were separated by SDS-PAGE and transferred to Odyssey nitrocellulose membranes (Licor) with iblot® dry blotting transfer system (ThermoFisher). Nonspecific binding was blocked by incubating membranes with Intercept Blocking Buffer (Licor) for 1 hour at room temperature with gentle shaking. The membranes were then incubated overnight at 4° C. with Primary antibodies rabbit anti-AR (1:1,000, Cell Signaling, 5153) and mouse anti-GAPDH (1:5,000, Santa Cruz Biotechnology, sc-47724) diluted in Intercept Blocking Buffer containing 0.1% Tween 20. After washing 3 times with TBS-T, the membranes were incubated with IRDye® […] goat anti-mouse IgG (1:20,000, Licor) or IRDye® […] goat anti-rabbit IgG (1:20,000, Licor) for 1 hour. After TBS-T washes, membranes were rinsed in TBS and scanned on Odyssey® CLx Imaging System (Licor). The bands were quantified using Image Studio™ Software (Licor).
Tables 5 and 6 summarize the androgen receptor (AR) degradative activity of exemplary compounds in LNCAP, VCAP and 22Rv1 cell lines 24 hours after administration. DC50: compound concentration needed for 50% target protein degradation.
Turning to `C[C@@H]1CN(c2ccc(C#N)c3ncccc23)[C@@H](C)CN1C(=O)Nc1ccc(N2CCC(CN3CCN(c4cc5c(cc4F)C(=O)N(C4CCC(=O)NC4=O)C5=O)CC3)CC2)nc1` (stereo partly drawn) [Compound 2-22, (2R,5S)-4-(8-cyanoquinolin-5-yl)-N-(6-(4-((4-(2-(2,6-dioxopiperidin-3-yl)-6-fluoro-1,3-dioxoisoindolin-5-yl)piperazin-1-yl)methyl)piperidin-1-yl)pyridin-3-yl)-2,5-dimethylpiperazine-1-carboxamide], the DC50 was greater than 100 nM.
Consider `C[C@@H]1CN(c2ccc(C#N)c3ncccc23)[C@@H](C)CN1C(=O)Nc1cc(F)c(N2CCC(CN3CCN(c4ccc5c(c4)C(=O)N(C4CCC(=O)NC4=O)C5=O)CC3)CC2)cc1F` (stereo partly drawn) [Compound 2-17, (2R,5S)-4-(8-cyanoquinolin-5-yl)-N-(4-(4-((4-(2-(2,6-dioxopiperidin-3-yl)-1,3-dioxoisoindolin-5-yl)piperazin-1-yl)methyl)piperidin-1-yl)-2,5-difluorophenyl)-2,5-dimethylpiperazine-1-carboxamide], for which the DC50 is greater than 100 nM.
On to `COc1cc(N2C[C@@H](C)N(C(=O)Nc3ccc(N4CCC(CN5CCN(c6ccc7c(c6)C(=O)N(C6CCC(=O)NC6=O)C7=O)CC5)CC4)cc3F)C[C@@H]2C)ccc1C#N` (stereo partly drawn) [Compound 1-25, (2R,5S)-4-(4-cyano-3-methoxyphenyl)-N-(4-(4-((4-(2-(2,6-dioxopiperidin-3-yl)-1,3-dioxoisoindolin-5-yl)piperazin-1-yl)methyl)piperidin-1-yl)-2-fluorophenyl)-2,5-dimethylpiperazine-1-carboxamide], for which the DC50 was no more than 10 nM.
As for `C[C@@H]1CN(c2ccc(C#N)c(Cl)c2)[C@@H](C)CN1C(=O)Nc1ccc(N2CCC(CN3CCN(c4ccc5c(c4)CN([C@H]4CCC(=O)NC4=O)C5=O)CC3)CC2)c(F)c1` [Compound 1-46, (2R,5S)-4-(3-chloro-4-cyanophenyl)-N-(4-(4-((4-(2-((S)-2,6-dioxopiperidin-3-yl)-1-oxoisoindolin-5-yl)piperazin-1-yl)methyl)piperidin-1-yl)-3-fluorophenyl)-2,5-dimethylpiperazine-1-carboxamide], the figure is no more than 10 nM.
Regarding `COc1cc(N2C[C@@H](C)N(C(=O)Nc3ccc(N4CCC(CN5CCN(c6cc7c(cc6F)C(=O)N(C6CCC(=O)NC6=O)C7=O)CC5)CC4)nc3)C[C@@H]2C)ccc1C#N` (stereo partly drawn) [Compound 1-39, (2R,5S)-4-(4-cyano-3-methoxyphenyl)-N-(6-(4-((4-(2-(2,6-dioxopiperidin-3-yl)-6-fluoro-1,3-dioxoisoindolin-5-yl)piperazin-1-yl)methyl)piperidin-1-yl)pyridin-3-yl)-2,5-dimethylpiperazine-1-carboxamide], the DC50 was no more than 10 nM.
The value for `C[C@@H]1CN(c2ccc(C#N)c3ncccc23)[C@@H](C)CN1C(=O)Nc1ccc(N2CCC(CN3CCN(c4ccc5c(c4)CN([C@H]4CCC(=O)NC4=O)C5=O)CC3)CC2)c(F)c1` [Compound 2-21, (2R,5S)-4-(8-cyanoquinolin-5-yl)-N-(4-(4-((4-(2-((S)-2,6-dioxopiperidin-3-yl)-1-oxoisoindolin-5-yl)piperazin-1-yl)methyl)piperidin-1-yl)-3-fluorophenyl)-2,5-dimethylpiperazine-1-carboxamide] was greater than 100 nM; that for `C[C@@H]1CN(c2ccc(C#N)c(Cl)c2)[C@@H](C)CN1C(=O)Nc1ccc(N2CCC(CN3CCN(c4ccc5c(c4)CN([C@H]4CCC(=O)NC4=O)C5=O)CC3)CC2)nc1` [Compound 1-44, (2R,5S)-4-(3-chloro-4-cyanophenyl)-N-(6-(4-((4-(2-((S)-2,6-dioxopiperidin-3-yl)-1-oxoisoindolin-5-yl)piperazin-1-yl)methyl)piperidin-1-yl)pyridin-3-yl)-2,5-dimethylpiperazine-1-carboxamide] was no more than 10 nM.
As for `C[C@@H]1CN(c2ccc(C#N)c(Cl)c2)[C@@H](C)CN1C(=O)Nc1ccc(N2CCC(CN(C)C3CC(Oc4ccc5c(c4)C(=O)N(C4CCC(=O)NC4=O)C5=O)C3)CC2)nc1` (stereo partly drawn) [Compound 1-9, (2R,5S)-4-(3-chloro-4-cyanophenyl)-N-(6-(4-((((1r,3r)-3-((2-(2,6-dioxopiperidin-3-yl)-1,3-dioxoisoindolin-5-yl)oxy)cyclobutyl)(methyl)amino)methyl)piperidin-1-yl)pyridin-3-yl)-2,5-dimethylpiperazine-1-carboxamide], the DC50 was no more than 10 nM.
In the case of `CC(C)N(CC1CCN(c2ncc(NC(=O)N3C[C@H](C)N(c4ccc(C#N)c5ncccc45)C[C@H]3C)cn2)CC1)C1CC(Oc2ccc3c(c2)C(=O)N(C2CCC(=O)NC2=O)C3=O)C1` (stereo partly drawn) [Compound 2-14, (2R,5S)-4-(8-cyanoquinolin-5-yl)-N-(2-(4-((((1r,3r)-3-((2-(2,6-dioxopiperidin-3-yl)-1,3-dioxoisoindolin-5-yl)oxy)cyclobutyl)(isopropyl)amino)methyl)piperidin-1-yl)pyrimidin-5-yl)-2,5-dimethylpiperazine-1-carboxamide], the DC50 was no more than 10 nM.
Take `C[C@H]1CN(C(=O)Nc2cnc(N3CCC(CN4CCN(c5ccc6c(c5)C(=O)N(C5CCC(=O)NC5=O)C6=O)CC4)CC3)nc2)CCN1c1ccc(C#N)c2ncccc12` (stereo partly drawn) [Compound 2-16, (3S)-4-(8-cyanoquinolin-5-yl)-N-(2-(4-((4-(2-(2,6-dioxopiperidin-3-yl)-1,3-dioxoisoindolin-5-yl)piperazin-1-yl)methyl)piperidin-1-yl)pyrimidin-5-yl)-3-methylpiperazine-1-carboxamide]: the DC50 is greater than 100 nM.
`C[C@@H]1CN(c2ccc(C#N)c3ncccc23)[C@@H](C)CN1C(=O)Nc1ccc(N2CCC(CN3CCN(c4ccc5c(c4)C(=O)N(C4CCC(=O)NC4=O)C5=O)CC3)CC2)c(F)c1` (stereo partly drawn) [Compound 2-12, (2R,5S)-4-(8-cyanoquinolin-5-yl)-N-(4-(4-((4-(2-(2,6-dioxopiperidin-3-yl)-1,3-dioxoisoindolin-5-yl)piperazin-1-yl)methyl)piperidin-1-yl)-3-fluorophenyl)-2,5-dimethylpiperazine-1-carboxamide] yielded a DC50 greater than 100 nM.
Take `C[C@@H]1CN(c2ccc(C#N)c(Cl)c2)[C@@H](C)CN1C(=O)Nc1ccc(N2CCC(CN3CCN(c4ccc5c(c4)C(=O)N(C4CCC(=O)NC4=O)C5=O)CC3)CC2)cc1F` (stereo partly drawn) [Compound 1-23, (2R,5S)-4-(3-chloro-4-cyanophenyl)-N-(4-(4-((4-(2-(2,6-dioxopiperidin-3-yl)-1,3-dioxoisoindolin-5-yl)piperazin-1-yl)methyl)piperidin-1-yl)-2-fluorophenyl)-2,5-dimethylpiperazine-1-carboxamide]: the DC50 is no more than 10 nM.
Molecule `C[C@@H]1CN(c2ccc(C#N)c3ncccc23)[C@@H](C)CN1C(=O)Nc1cnc(N2CCC(CN3CCN(c4cc5c(cc4F)C(=O)N(C4CCC(=O)NC4=O)C5=O)CC3)CC2)nc1` (stereo partly drawn) [Compound 2-23, (2R,5S)-4-(8-cyanoquinolin-5-yl)-N-(2-(4-((4-(2-(2,6-dioxopiperidin-3-yl)-6-fluoro-1,3-dioxoisoindolin-5-yl)piperazin-1-yl)methyl)piperidin-1-yl)pyrimidin-5-yl)-2,5-dimethylpiperazine-1-carboxamide] came in with a DC50 greater than 100 nM.
`CC(C)N(CC1CCN(c2ccc(NC(=O)N3C[C@H](C)N(c4ccc(C#N)c(Cl)c4)C[C@H]3C)cn2)CC1)C1CC(Oc2ccc3c(c2)C(=O)N(C2CCC(=O)NC2=O)C3=O)C1` (stereo partly drawn) [Compound 1-12, (2R,5S)-4-(3-chloro-4-cyanophenyl)-N-(6-(4-((((1s,3s)-3-((2-(2,6-dioxopiperidin-3-yl)-1,3-dioxoisoindolin-5-yl)oxy)cyclobutyl)(isopropyl)amino)methyl)piperidin-1-yl)pyridin-3-yl)-2,5-dimethylpiperazine-1-carboxamide]: the DC50 is 10 to 100 nM.
